Literature values as cited in patent US10332616B2, “Movable type method applied to protein-ligand binding” (University of Florida Research Foundation, Inc., priority 2013, dated 2019).
Where two headings read alike, the source gives them in different places.

Conditions: experimental solvation free energy
[1] = test set with 372 neutral compounds

Row | SMILES | Exp. ΔGsolv [1] | Exp. ΔGsolv (neutral compounds test set)
1 | C [Compound 0001met] | 2 kcal/mol | 
2 | CCC [Compound 0003pro] | 1.96 kcal/mol | 
3 | CCCC [Compound 0004nbu] | 2.08 kcal/mol | 
4 | CCCCCC [Compound 0006nhe] | 2.49 kcal/mol | 
5 | CCCCCCC [Compound 0007nhe] | 2.62 kcal/mol | 
6 | CCCCCCCC [Compound 0008noc] | 2.89 kcal/mol | 
7 | CC(C)C [Compound 0010met] | 2.32 kcal/mol | 
8 | CC(C)(C)C [Compound 0011dim] | 2.5 kcal/mol | 
9 | CCCC(C)C [Compound 0012met] | 2.52 kcal/mol | 
10 | CC(C)CC(C)C [Compound 0013dim] | 2.88 kcal/mol | 
11 | C1CC1 [Compound 0016cyc] | 0.75 kcal/mol | 
12 | C1CCCC1 [Compound 0017cyc] | 1.2 kcal/mol | 
13 | C1CCCCC1 [Compound 0018cyc] | 1.23 kcal/mol | 
14 | CC1CCCCC1 [Compound 0019met] | 1.71 kcal/mol | 
15 | C[C@@H]1CCCC[C@@H]1C [Compound 0020cis] | 1.58 kcal/mol | 
16 | C=C [Compound 0021eth] | 1.27 kcal/mol | 
17 | C=CC [Compound 0022pro] | 1.27 kcal/mol | 
18 | C=CC=C [Compound 0023str] | 0.61 kcal/mol | 
19 | C=C(C)C [Compound 0024met] | 1.16 kcal/mol | 
20 | C=CCC [Compound 0025buta] | 1.38 kcal/mol | 
21 | C1=CCCC1 [Compound 0026cyc] | 0.56 kcal/mol | 
22 | C=CCCC [Compound 0027pen] | 1.66 kcal/mol | 
23 | C/C=C/CC [Compound 0028Epe] | 1.34 kcal/mol | 
24 | C=CCCCC [Compound 0029hex] | 1.68 kcal/mol | 
25 | C#C [Compound 0030eth] | -0.01 kcal/mol | 
26 | C#CC [Compound 0031pro] | -0.31 kcal/mol | 

Row | SMILES | Exp. ΔGsolv [1] | Exp. ΔGsolv (neutral compounds test set)
27 | C#CCC [Compound 0032but] | -0.16 kcal/mol | 
28 | C#CCCCC [Compound 0034hex] | 0.29 kcal/mol | 
29 | c1ccccc1 [Compound 0035ben] | -0.87 kcal/mol | 
30 | Cc1ccccc1 [Compound 0036tol] | -0.89 kcal/mol | 
31 | CCc1ccccc1 [Compound 0037eth] | -0.8 kcal/mol | 
32 | Cc1ccccc1C [Compound 0038oxy] | -0.9 kcal/mol | 
33 | Cc1cccc(C)c1 [Compound 0039mxy] | -0.84 kcal/mol | 
34 | Cc1ccc(C)cc1 [Compound 0040pxy] | -0.81 kcal/mol | 
35 | c1ccc2ccccc2c1 [Compound 0041nap] | -2.39 kcal/mol | 
36 | c1ccc2cc3ccccc3cc2c1 [Compound 0042ant] | -4.23 kcal/mol | 
37 | CCO [Compound 0045eth] |  | -5.01 kcal/mol
38 | OCCO [Compound 0046eth] |  | -9.3 kcal/mol
39 | CCCO [Compound 0047pro] |  | -4.83 kcal/mol
40 | CC(C)O [Compound 0048pro] |  | -1.76 kcal/mol
41 | OC1CCCC1 [Compound 0051cyc] |  | -5.49 kcal/mol
42 | CCCCCO [Compound 0052pen] |  | -4.47 kcal/mol
43 | Oc1ccccc1 [Compound 0053phe] |  | -6.62 kcal/mol
44 | CCCCCCO [Compound 0054hex] |  | -4.36 kcal/mol
45 | Cc1ccccc1O [Compound 0055ocr] |  | -5.87 kcal/mol
46 | Cc1cccc(O)c1 [Compound 0056mcr] |  | -5.49 kcal/mol
47 | CCCCCCCO [Compound 0058hep] |  | -4.24 kcal/mol
48 | COC [Compound 0060dim] |  | -1.92 kcal/mol
49 | C1CCOC1 [Compound 0061tet] |  | -3.47 kcal/mol
50 | C1COCCO1 [Compound 0062dio] |  | -5.05 kcal/mol
51 | CCOCC [Compound 0063die] |  | -1.76 kcal/mol
52 | CCCOC [Compound 0064met] |  | -1.66 kcal/mol

Row | SMILES | Exp. ΔGsolv [1] | Exp. ΔGsolv (neutral compounds test set)
53 | COC(C)C [Compound 0065met] |  | -2.01 kcal/mol
54 | COC(C)(C)C [Compound 0067but] |  | -2.21 kcal/mol
55 | COc1ccccc1 [Compound 0068ani] |  | -2.45 kcal/mol
56 | CCCC=O [Compound 0072but] |  | -3.18 kcal/mol
57 | CCCCC=O [Compound 0073pen] |  | -3.03 kcal/mol
58 | O=Cc1ccccc1 [Compound 0074ben] |  | -4.02 kcal/mol
59 | CC(C)=O [Compound 0075pro] | -3.85 kcal/mol | 
60 | CCC(C)=O [Compound 0076but] | -3.64 kcal/mol | 
61 | O=C1CCCC1 [Compound 0077cyc] | -4.68 kcal/mol | 
62 | CCCC(C)=O [Compound 0078pen] | -3.53 kcal/mol | 
63 | CCC(=O)CC [Compound 0079pen] | -3.41 kcal/mol | 
64 | CCCCC(C)=O [Compound 0080hex] | -3.29 kcal/mol | 
65 | CC(=O)C(C)(C)C [Compound 0081dim] | -2.89 kcal/mol | 
66 | CCCC(=O)CCC [Compound 0083hep] | -2.93 kcal/mol | 
67 | CC(=O)c1ccccc1 [Compound 0084met] | -4.58 kcal/mol | 
68 | CC(=O)O [Compound 0086eth] |  | -6.7 kcal/mol
69 | CCC(=O)O [Compound 0087pro] |  | -6.47 kcal/mol
70 | CCCC(=O)O [Compound 0088but] |  | -6.36 kcal/mol
71 | CCCCC(=O)O [Compound 0089pen] |  | -6.16 kcal/mol
72 | CCCCCC(=O)O [Compound 0090hex] |  | -6.21 kcal/mol
73 | COC=O [Compound 0091met] |  | -2.78 kcal/mol
74 | CCOC=O [Compound 0092ethb] |  | -2.65 kcal/mol
75 | COC(C)=O [Compound 0093met] |  | -3.32 kcal/mol
76 | CCC(=O)OC [Compound 0094met] |  | -2.93 kcal/mol
77 | CCOC(C)=O [Compound 0095eth] |  | -3.1 kcal/mol
78 | CCCC(=O)OC [Compound 0096met] |  | -2.83 kcal/mol

Row | SMILES | Exp. ΔGsolv [1] | Exp. ΔGsolv (neutral compounds test set)
79 | CCCOC(C)=O [Compound 0097pro] |  | -2.86 kcal/mol
80 | CCCCC(=O)OC [Compound 0098met] |  | -2.57 kcal/mol
81 | CCN [Compound 0103eth] |  | -4.5 kcal/mol
82 | CNC [Compound 0104dim] |  | -4.29 kcal/mol
83 | C1CNC1 [Compound 0105aze] |  | -5.56 kcal/mol
84 | CN(C)C [Compound 0107tri] |  | -3.23 kcal/mol
85 | C1CCNC1 [Compound 0108pyr] |  | -5.48 kcal/mol
86 | C1CNCCN1 [Compound 0109pip] |  | -7.4 kcal/mol
87 | CCCCN [Compound 0110but] |  | -4.29 kcal/mol
88 | CN1CCNCC1 [Compound 0112Nme] |  | -7.77 kcal/mol
89 | CCCCCN [Compound 0113pen] |  | -4.1 kcal/mol
90 | CN1CCN(C)CC1 [Compound 0114NNd] |  | -7.58 kcal/mol
91 | CCCNCCC [Compound 0115dip] |  | -3.66 kcal/mol
92 | c1ccncc1 [Compound 0116pyr] | -4.7 kcal/mol | 
93 | Cc1cnccn1 [Compound 0117met] | -5.57 kcal/mol | 
94 | Nc1ccccc1 [Compound 0118ani] |  | -5.49 kcal/mol
95 | Cc1ccccn1 [Compound 0119met] | -4.63 kcal/mol | 
96 | Cc1cccnc1 [Compound 0120met] | -4.77 kcal/mol | 
97 | Cc1ccncc1 [Compound 0121met] | -4.94 kcal/mol | 
98 | CNc1ccccc1 [Compound 0122Nme] | -4.68 kcal/mol | 
99 | Cc1ccnc(C)c1 [Compound 0123dim] | -4.86 kcal/mol | 
100 | Cc1cccc(C)n1 [Compound 0125dim] | -4.6 kcal/mol | 
101 | CC#N [Compound 0126eth] | -3.89 kcal/mol | 
102 | CCC#N [Compound 0127pro] | -3.85 kcal/mol | 
103 | CCCC#N [Compound 0128butb] | -3.64 kcal/mol | 
104 | N#Cc1ccccc1 [Compound 0129ben] | -4.1 kcal/mol | 

Row | SMILES | Exp. ΔGsolv [1] | Exp. ΔGsolv (neutral compounds test set)
105 | CC[N+](=O)[O-] [Compound 0130nit] | -3.71 kcal/mol | 
106 | CCC[N+](=O)[O-] [Compound 0131nit] | -3.34 kcal/mol | 
107 | CC(C)[N+](=O)[O-] [Compound 0132nit] | -3.14 kcal/mol | 
108 | CCCC[N+](=O)[O-] [Compound 0133nit] | -3.08 kcal/mol | 
109 | Cc1ccccc1[N+](=O)[O-] [Compound 0135met] | -3.59 kcal/mol | 
110 | CS [Compound 0136met] |  | -1.24 kcal/mol
111 | CCS [Compound 0137ethb] |  | -1.3 kcal/mol
112 | CCCS [Compound 0138pro] |  | -1.05 kcal/mol
113 | Sc1ccccc1 [Compound 0139thi] |  | -2.55 kcal/mol
114 | CSC [Compound 0140dim] |  | -1.54 kcal/mol
115 | CCSCC [Compound 0142die] |  | -1.43 kcal/mol
116 | CCCSCCC [Compound 0143dip] |  | -1.27 kcal/mol
117 | CSc1ccccc1 [Compound 0144thi] |  | -2.73 kcal/mol
118 | C=CCO [Compound 0145pro] |  | -5.08 kcal/mol
119 | COCCO [Compound 0146met] |  | -6.77 kcal/mol
120 | COCCN [Compound 0147met] |  | -6.55 kcal/mol
121 | C#CC=C [Compound 0148but] | 0.04 kcal/mol | 
122 | C1COCCN1 [Compound 0149mor] |  | -7.17 kcal/mol
123 | O=Cc1cccc(O)c1 [Compound 0150mhy] |  | -9.51 kcal/mol
124 | O=Cc1ccc(O)cc1 [Compound 0151phy] |  | -10.48 kcal/mol
125 | CC(F)F [Compound 0154dif] | -0.11 kcal/mol | 
126 | ClCCl [Compound 0161dic] | -1.36 kcal/mol | 
127 | ClC(Cl)Cl [Compound 0162tri] | -1.07 kcal/mol | 
128 | CCCl [Compound 0163chl] | -0.63 kcal/mol | 
129 | CC(Cl)(Cl)Cl [Compound 0165tri] | -0.25 kcal/mol | 
